Experimental data published in PubChem BioAssay AID1963967 (Molecular Pharmacology Branch, DTP, NCI, 2024).

Test system: 855422-203-R-J1-PDC spheroids with HUVEC/MSC, viability
Test: Anticancer human tumor 855422-203-R-J1-PDC patient-derived bladder carcinoma cell line growth inhibition [PI3K]
Settings: for viability, T/C: stronger effect = lower value
Source text: Combinatorial screen of targeted agents with the PI3K inhibitors inavolisib, alpelisib, duvelisib, and copanlisib in multi-cell type tumor spheroids
A high-throughput screen of multi-cell type tumor spheroids was designed to identify active combinations of targeted small molecules and PI3K pathway inhibitors. Complex spheroids include a stromal component modeled by human endothelial cells (HUVEC) and fibroblasts modeled by human mesenchymal stem cells (MSCs). The concentration ranges selected for each drug and investigational agent were based upon clinically achievable concentrations if the clinical Cmax of the agent was known.
Compounds. The drugs and investigational agents: inavolisib (NSC800729), alpelisib (NSC765974), duvelisib (NSC772469), copanlisib (NSC816437), ipatasertib (NSC767898), afuresertib (NSC778305), talazoparib (NSC767125), sapanisertib (NSC764658), selumetinib (NSC741078), tovorafenib (DAY101, NSC766906), vemurafenib (NSC761431), ravoxertinib (NSC781343), sotorasib (NSC818433), MRTX1133 (NSC 836407), abemaciclib (NSC 768073), palbociclib (NSC758247), venetoclax (NSC 766270), SY5609 (NSC837396), enzalutamide (NSC755605), and darolutamide (NSC825331), were obtained from the National Cancer Institute (NCI) Developmental Therapeutics Program Chemical Repository. The FDA-approved anticancer drug set is available from the NCI Developmental Therapeutics Program. […] The stock solutions were prepared in dimethyl sulfoxide (DMSO, Sigma-Aldrich, St. Louis, MO, cat. D2650) at 800-fold the tested concentration and stored at -70 degrees C prior to their use. All drugs and investigational agents were tested over a range starting from a high concentration at or near the clinical Cmax and decreasing in half-log increments. If the clinical Cmax for an agent had not been determined, the highest concentration tested was 10 microM.
Cell Culture. All cells were maintained in an incubator at 37 degrees C and 5% CO2 with 95% humidity. The PDC lines were cultured according to standard operating procedures established by the NCI PDMR (https://pdmr.cancer.gov/sops/default.htm). All PDCs were thawed and cultured in Matrigel-coated flasks prepared with a working solution of 1X Ham's F-12 nutrient mix, without supplementation (Invitrogen, Waltham, MA, cat. 11765054), 100 U/mL penicillin-streptomycin (Invitrogen, cat. 15140122), and 2.5% Matrigel (Corning Inc., Corning, NY, cat. 354248) for the first three passages. The 354836-022-R-J1-PDC, 475296-252-R-J1-PDC, and 997726-040-R-J2-PDC lines were cultured in 6A media, which includes advanced DMEM/F-12 (Thermo Fisher Scientific, cat. 12634028), 10 mM HEPES (Thermo Fisher Scientific, cat. 15630080), 1X GlutaMAX supplement (Thermo Fisher Scientific, cat. 35050061), 0.1 mg/mL primocin (InvivoGen, San Diego, CA, cat. ant-pm-2), 10% defined fetal bovine serum, heat inactivated (HyClone Laboratories Inc., Logan, UT, cat. SH30070.03HI), 50% L-WRN conditioned media (ATCC, cat. CRL-3276), 1.25 mM N-Acetyl-L-cysteine (Sigma-Aldrich, cat. A9165), 10 mM nicotinamide (Sigma-Aldrich, cat. N0636), 1X B-27 supplement (Thermo Fisher Scientific, cat. 17504044), 1X N-2 supplement (Thermo Fisher Scientific, cat. 17502048), and 10 microM Y-27632 dihydrochloride (Tocris Bioscience, Bristol, United Kingdom, cat. 1254). The 624824-186-R-J2-PDC line was cultured in 6C/Colon 1B media, which includes all 6A media components plus 50 ng/mL human EGF recombinant protein (Thermo Fisher Scientific, cat. PHG0311). […]

[1] = curve of first compound, second compound 0.0316 µM
[2] = curve of first compound, second compound 0.1 µM
[3] = curve of first compound, second compound 0.316 µM
[4] = curve of first compound, second compound 1 µM
[5] = curve of first compound, second compound 3.16 µM
[6] = curve of first compound, second compound 10 µM
[7] = second compound 0.0316 µM, first compound 0.0316 µM
[8] = second compound 0.0316 µM, first compound 0.1 µM
[9] = second compound 0.1 µM, first compound 0.0316 µM
[10] = second compound 0.1 µM, first compound 0.1 µM
[11] = second compound 0.316 µM, first compound 0.0316 µM
[12] = second compound 0.316 µM, first compound 0.1 µM
[13] = second compound 1 µM, first compound 0.0316 µM
[14] = second compound 1 µM, first compound 0.1 µM
[15] = second compound 3.16 µM, first compound 0.0316 µM
[16] = second compound 3.16 µM, first compound 0.1 µM
[17] = second compound 10 µM, first compound 0.0316 µM
[18] = second compound 10 µM, first compound 0.1 µM
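Also: agents incubated with spheroids for one week before read-out.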
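For viability, T/C in this document: 100% = DMSO vehicle-treated control wells.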

`CC1(C)CCC(CN2CCN(c3ccc(C(=O)NS(=O)(=O)c4ccc(NCC5CCOCC5)c([N+](=O)[O-])c4)c(Oc4cnc5[nH]ccc5c4)c3)CC2)=C(c2ccc(Cl)cc2)C1` + CC(Nc1ncnc2nc[nH]c12)c1cc2cccc(Cl)c2c(=O)n1-c1ccccc1 gave an IC50 [1] of 4.97 µM, an IC50 [2] of 4.87 µM and an IC50 [3] of 5.11 µM. It also gave an IC50 [4] of 5.04 µM, an IC50 [5] of 5.09 µM and an IC50 [6] of 5.17 µM. It also gave a viability, T/C [7] of 118%, a viability, T/C [8] of 88.3% and a viability, T/C (second compound 0.0316 µM, first compound 0.316 µM) of 114%. It also gave a viability, T/C (second compound 0.0316 µM, first compound 1 µM) of 105%, a viability, T/C (second compound 0.0316 µM, first compound 3.16 µM) of 81.1% and a viability, T/C (second compound 0.0316 µM, first compound 10 µM) of 2.05%. The viability, T/C [9] was 92%, the viability, T/C [10] was 101% and the viability, T/C (second compound 0.1 µM, first compound 0.316 µM) was 111%. For the same compound, the viability, T/C (second compound 0.1 µM, first compound 1 µM) was 117%, the viability, T/C (second compound 0.1 µM, first compound 3.16 µM) was 78.8% and the viability, T/C (second compound 0.1 µM, first compound 10 µM) was 1.83%. The viability, T/C [11] was 104%, the viability, T/C [12] was 107% and the viability, T/C (second compound 0.316 µM, first compound 0.316 µM) was 105%. For the same compound, the viability, T/C (second compound 0.316 µM, first compound 1 µM) was 106%, the viability, T/C (second compound 0.316 µM, first compound 3.16 µM) was 84.2% and the viability, T/C (second compound 0.316 µM, first compound 10 µM) was 2.05%. It also gave a viability, T/C [13] of 95.6%, a viability, T/C [14] of 106% and a viability, T/C (second compound 1 µM, first compound 0.316 µM) of 103%. The viability, T/C (second compound 1 µM, first compound 1 µM) was 98.4%, the viability, T/C (second compound 1 µM, first compound 3.16 µM) was 82.5% and the viability, T/C (second compound 1 µM, first compound 10 µM) was 2.34%. The viability, T/C [15] was 99.9%, the viability, T/C [16] was 96.9% and the viability, T/C (second compound 3.16 µM, first compound 0.316 µM) was 104%. For the same compound, the viability, T/C (second compound 3.16 µM, first compound 1 µM) was 97.9%, the viability, T/C (second compound 3.16 µM, first compound 3.16 µM) was 83.9% and the viability, T/C (second compound 3.16 µM, first compound 10 µM) was 2.02%. It also gave a viability, T/C [17] of 97.2%, a viability, T/C [18] of 79.9% and a viability, T/C (second compound 10 µM, first compound 0.316 µM) of 103%. For the same compound, the viability, T/C (second compound 10 µM, first compound 1 µM) was 89.1%, the viability, T/C (second compound 10 µM, first compound 3.16 µM) was 85.6% and the viability, T/C (second compound 10 µM, first compound 10 µM) was 2.02%.

In the case of `Cn1ncc(Cl)c1-c1cc(C(=O)NC(CN)Cc2cccc(F)c2)sc1Cl` (stereo unspecified), the viability, T/C (compound 0.0316 µM) is reported as 93.2% [middle of 4 runs], the viability, T/C (compound 0.1 µM) is reported as 75.2% [middle of 4 runs] and the viability, T/C (compound 0.316 µM) is reported as 69.4% [middle of 4 runs]. The viability, T/C (compound 1 µM) was 49.7% [middle of 4 runs], the viability, T/C (compound 3.16 µM) was 28.2% [middle of 4 runs] and the viability, T/C (compound 10 µM) was 8.18% [middle of 4 runs]. For the same compound, the IC50 (curve of compound) was 936 nM [middle of 4 runs].

Work on `Cn1ncnc1[C@H]1c2n[nH]c(=O)c3cc(F)cc(c23)N[C@@H]1c1ccc(F)cc1` + CC(Nc1ncnc2nc[nH]c12)c1cc2cccc(Cl)c2c(=O)n1-c1ccccc1 yielded an IC50 [1] greater than 0.1 µM, an IC50 [2] greater than 0.1 µM and an IC50 [3] greater than 0.1 µM. For the same compound, the IC50 [4] was greater than 0.1 µM, the IC50 [5] was greater than 0.1 µM and the IC50 [6] was greater than 0.1 µM. It also gave a viability, T/C (second compound 0.0316 µM, first compound 0.000316 µM) of 107%, a viability, T/C (second compound 0.0316 µM, first compound 0.001 µM) of 98% and a viability, T/C (second compound 0.0316 µM, first compound 0.00316 µM) of 106%. It also gave a viability, T/C (second compound 0.0316 µM, first compound 0.01 µM) of 97.8%, a viability, T/C [7] of 109% and a viability, T/C [8] of 100%. It also gave a viability, T/C (second compound 0.1 µM, first compound 0.000316 µM) of 121%, a viability, T/C (second compound 0.1 µM, first compound 0.001 µM) of 104% and a viability, T/C (second compound 0.1 µM, first compound 0.00316 µM) of 113%. It also gave a viability, T/C (second compound 0.1 µM, first compound 0.01 µM) of 101%, a viability, T/C [9] of 111% and a viability, T/C [10] of 104%. The viability, T/C (second compound 0.316 µM, first compound 0.000316 µM) was 106%, the viability, T/C (second compound 0.316 µM, first compound 0.001 µM) was 107% and the viability, T/C (second compound 0.316 µM, first compound 0.00316 µM) was 121%. The viability, T/C (second compound 0.316 µM, first compound 0.01 µM) was 102%, the viability, T/C [11] was 110% and the viability, T/C [12] was 107%. For the same compound, the viability, T/C (second compound 1 µM, first compound 0.000316 µM) was 106%, the viability, T/C (second compound 1 µM, first compound 0.001 µM) was 107% and the viability, T/C (second compound 1 µM, first compound 0.00316 µM) was 110%. The viability, T/C (second compound 1 µM, first compound 0.01 µM) was 104%, the viability, T/C [13] was 104% and the viability, T/C [14] was 104%. For the same compound, the viability, T/C (second compound 3.16 µM, first compound 0.000316 µM) was 96.6%, the viability, T/C (second compound 3.16 µM, first compound 0.001 µM) was 92% and the viability, T/C (second compound 3.16 µM, first compound 0.00316 µM) was 97.9%. For the same compound, the viability, T/C (second compound 3.16 µM, first compound 0.01 µM) was 105%, the viability, T/C [15] was 105% and the viability, T/C [16] was 104%. For the same compound, the viability, T/C (second compound 10 µM, first compound 0.000316 µM) was 88.3%, the viability, T/C (second compound 10 µM, first compound 0.001 µM) was 85% and the viability, T/C (second compound 10 µM, first compound 0.00316 µM) was 78.4%. The viability, T/C (second compound 10 µM, first compound 0.01 µM) was 87%, the viability, T/C [17] was 89.5% and the viability, T/C [18] was 82.3%.
